The text below walks through data of paper PMC9657391, “A Food-Grade Method for Enhancing the Levels of Low Molecular Weight Proanthocyanidins with Potentially High Intestinal Bioavailability” (International Journal of Molecular Sciences, 2022).

pIC50: −log10 of the molar value.

This assay deals with T1, COX-2 (cyclooxygenase 2) (Homo sapiens, UniProt P35354).
T1 construct: gene PTGS2
The assay can be described thus: biochemical.

T1 sequence (P35354 18-604): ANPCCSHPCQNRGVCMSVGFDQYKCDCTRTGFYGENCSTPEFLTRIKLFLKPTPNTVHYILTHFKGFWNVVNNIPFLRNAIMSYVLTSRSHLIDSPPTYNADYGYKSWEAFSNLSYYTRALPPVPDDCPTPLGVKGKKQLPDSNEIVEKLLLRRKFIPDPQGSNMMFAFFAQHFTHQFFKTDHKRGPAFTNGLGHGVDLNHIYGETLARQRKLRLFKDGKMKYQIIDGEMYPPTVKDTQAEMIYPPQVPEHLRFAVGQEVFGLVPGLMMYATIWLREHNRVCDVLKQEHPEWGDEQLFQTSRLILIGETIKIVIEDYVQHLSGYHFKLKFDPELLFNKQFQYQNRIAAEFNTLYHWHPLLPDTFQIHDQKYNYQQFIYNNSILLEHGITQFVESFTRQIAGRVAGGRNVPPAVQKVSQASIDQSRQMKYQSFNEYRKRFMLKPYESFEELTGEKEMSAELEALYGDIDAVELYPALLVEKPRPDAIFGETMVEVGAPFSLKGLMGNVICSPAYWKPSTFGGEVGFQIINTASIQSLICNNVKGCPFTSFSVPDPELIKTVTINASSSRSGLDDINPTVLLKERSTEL

Consider `COc1ccc2cc([C@H](C)C(=O)O)ccc2c1` [Naproxen], for which the pIC50 (as a rule, the IC50 on a negative log10 scale, so that one unit is a factor of ten) was 4.89.
